Key:
[1] = test system: α-tocopherol transfer protein (α-TTP); settings: relative affinity, RRR-α-tocopherol essentially 100%; cited from earlier work
[2] = DPPH assay (antioxidant activity, free radical scavenging); format: biochemical; settings: 5 concentrations, 0.1 mM DPPH, water:methanol 1:1, reading after 30 min at 518 nm, read-out: IC50, the point at which 50% of DPPH had been reduced
Excerpt: Assays that may be used to measure free radical scavenging properties include, for example, the DPPH assay and the ABTS assay. The 1,1-diphenyl-2-picryl hydrazyl (DPPH) radical is a stable free radical of purple color. Adding an antioxidant reduces the DPPH radical, which can be observed by color change (to yellow) in a spectrophotometer, for example by measuring absorbance at 518 nm. Mixing 2,2-α-azino-bis-(3-ethylbenzthiazoline-6-sulfonic acid) (ABTS) and hydrogen peroxide produces the ABTS radical (ABTS^●). Subsequent incubation with peroxidase produces the radical cation ABTS^•+. Adding an antioxidant causes an attenuation of the color change, which can be measured for example at 734 nm. The activity of an antioxidant is conventionally expressed as the concentration of an equivalent millimolar standard Trolox solution.
A stock solution of DPPH in methanol, 0.4 mM was prepared and stored in the dark at −20° C. prior to use. A test sample was diluted with water (pH=3.5 prepared by addition of acetic acid) to 1 ml. The sample was then added to the dilute DPPH stock in methanol to obtain a final sample volume of 2 ml with a 0.1 mM DPPH concentration. The water:methanol ratio was 1:1 (v/v). A blank was prepared with 1 ml of water (pH=3.5) and pure methanol. […] Absorption readings were taken after 30 min at 518 nm using a Geminys 6 spectrophotometer (Thermo Scientific, Waltham, Mass.). […]

| Structure (SMILES) | affinity of Alpha-TTP [1] | IC50 [2] |
| --- | --- | --- |
| CC(=O)Oc1c(C)c(C)c2c(c1C)CCC(C)(CCC[C@H](C)CCC[C@H](C)CCCC(C)C)O2 (stereo partly drawn) [α-tocopherol acetate] | 2% |  |
| Cc1c(C)c2c(c(C)c1O)CCC(C)(C(=O)O)O2 (stereo not shown) [Trolox, 6-hydroxy-2,5,7,8-tetramethylchroman-2-carboxylic acid] | 9% |  |
| Cc1cc(O)c(C)c2c1O[C@](C)(CCC[C@H](C)CCC[C@H](C)CCCC(C)C)CC2 [β-tocopherol] | 38% |  |
| Cc1c(C)c2c(c(C)c1O)CC[C@@](C)(CCC[C@H](C)CCC[C@H](C)CCCC(C)C)O2 [alpha-tocopherol] |  | 24.4 ± 1.5 µM |
| Cc1c(O)cc2c(c1C)O[C@](C)(CCC[C@H](C)CCC[C@H](C)CCCC(C)C)CC2 [γ-tocopherol] | 9% |  |
| Cc1c(C)c2c(c(C)c1O)CC[C@@](C)(CCC[C@H](C)CCC[C@H](C)CCCC(C)C)O2 [RRR-α-tocopherol] | ~100% |  |
| COC(=O)C(Cc1c[nH]cn1)NC(=O)CCNC(=O)CCCCCCCCCCCC[C@]1(C)CCc2c(C)c(O)c(C)c(C)c2O1 (stereo partly drawn) [VECAR, methyl 2-(3-(13-((R)-6-hydroxy-2,5,7,8-tetramethylchroman-2-yl)tridecanamido)propanamido)-3-(1H-imidazol-4-yl)propanoate] |  | 24.9 ± 1.4 µM |
